Measured values: patent publication US20250041307A1, “Uses of Bicyclic Compounds for the Treatment of Diseases” (Athira Pharma, Inc., priority 2021, published 2025)

How the values were obtained:
[1] = system: HGF/MET system; experiment: Phospho-MET ELISA; assay type: cell-based; design: key: − indicates that the compound failed to significantly augment MET phosphorylation; + indicates maximum potency at or above 100 nM; ++ indicates maximum potency at or above 10 nM; +++ indicates maximum potency at or above 1 nM; ++++ indicates maximum potency at or above 0.1 nM; settings: HEK293 cells; with 1 ng/mL recombinant HGF; 15 minutes; augmentation of MET phosphorylation (pMET ELISA)
Protocol: Compounds were screened for potency towards the HGF/MET system using phospho-MET (pMET) ELISA kits (Cell Signaling). pMET levels were detected in samples having low (1 ng/mL) and high (10 ng/mL) concentrations of HGF.
HEK293 cells were prepared by passage into 6-well multi-plates and grown at 37° C. at 5% CO2 in DMEM+10% FBS until approximately 90% confluent. Cells were then starved for at least 8 hours in serum-free growth media.
Exemplary compounds were prepared in DMEM+0.1% FBS, diluted and added to treatment media with 1 ng/mL recombinant HGF protein (R&D Systems). Cells were incubated in triplicate at 37° C. and 5% CO2 for 15 minutes. Samples were then treated with 180 μL ice-cold RIPA (radioimmunoprecipitation assay) buffer and cells were lysed on ice for 15 minutes. Lysates were cleared by centrifugation at 16,000-g for 15 minutes and the supernatant was retained. Samples were normalized using a BCA assay of lysates to determine protein concentrations across the samples.
Between 50 and 100 μg total protein lysate was loaded into ELISA wells in pMET Sandwich ELISA kit (Cell Signaling Catalog #7227C), ensuring equal protein load in each well. The ELISA was processed according to manufacturer's instructions. After color developed, absorbance was read on an optical plate reader at 450 nm.
Potency measurements were determined using peak efficacy by scaling test compound dose treatments along a scale of 1-10 between 1 ng/mL and 10 ng/mL HGF doses according to the following formula: […]
where y is the normalized data-point, x is the raw data point, A is the mean HGF at 1 ng/mL, and B is the mean HGF at 10 ng/mL.

[2] = system: MDCK cells; experiment: Cell scattering behavior assay; assay type: cell-based; design: key: − indicates that the compound failed to significantly promote cell scattering behavior; + indicates maximum potency at or above 100 nM; ++ indicates maximum potency at or above 10 nM; +++ indicates maximum potency at or above 1 nM; ++++ indicates maximum potency at or above 0.1 nM; settings: with 5 ng/mL HGF, 24 hours, normalized particle count compared to HGF treatment alone
Protocol: MDCK cells were grown under normal conditions and observed to spontaneously form tight colonies as they proliferate. MDCK cells respond to HGF treatment by moving away from each other (scattering), which is quantified to assess the amount of HGF/MET activation in the cell population. In this experiment, MDCK cells were plated in a 96-well format, treated with HGF and exemplary compounds, fluorescently stained, imaged in large fields, and scattering behavior was quantified. Quantification was determined by analyzing the number of continuous groups of cells compared to the total stained area imaged (normalized particle counts).
MDCK cells were plated at low density in black-walled imaging plates and allowed to attach overnight at 37° C. and 5% CO2 in DMEM+10% FBS. Cells were then starved to 2 hours in DMEM without FBS (“starve media”). Samples containing exemplary compounds were prepared in DMEM without FBS and included 5 ng/mL HGF protein (“treatment media”). A control curve was also prepared for each plate using HGF concentrations of 0, 5, 10, and 20 ng/mL. Starve media was replaced with treatment media and cells were incubated for 24 hours at 37° C. and 5% CO2.
After incubation, cells were fixed by replacing treatment media with cold ethanol and incubating for 20 minutes at 4° C. Cells were then rehydrated by washing with PBS and then with stain solution (fluorescent wheat germ agglutinin; WGA488 at 20 μg/mL in PBS). Cells were incubated with stain solution 30 minutes at room temperature after which stain solution was replaced with fresh PBS.
Fields of cells were imaged using an iCyte high content imager in the green wavelength. Images were converted to binary and analyzed for particle size and particle count. For the purpose of analysis, an individual cell touching no other cells or separated colonies of cells were identified as particles, and particle counts were normalized by the total signal area to account for differences in cell number. […] Compound potency was assessed by statistical increase in normalized particle count compared to HGF treatment alone.

[3] = Parallel artificial membrane permeability assay (PAMPA); assay type: in vitro ADME; settings: PBS, room temperature for 5 hours, 200 uM in donor well
Protocol: Bioavailable drugs must permeate the cellular membranes of the lining of the digestive tract. To estimate the penetrability of exemplary compounds, the in vitro parallel artificial membrane permeability assay (PAMPA) was utilized.
Test compounds must have a standard curve in the final read plate to determine partitioned concentration of each drug. A 6-point standard curve was prepared for each compound from 0 to 200 μM in phosphate-buffered saline (PBS).
Test compound solution (300 μL in PBS) was added to the donor (bottom) well of the PAMPA plate in 5 replicates and PBS vehicle (200 μL) was added to the acceptor (top) wells of appropriate wells to match the loading of the donor plate. The bottom and top of the PAMPA plates were then sandwiched together. The PAMPA plates were then incubated at room temperature for 5 hours. After incubation, 150 μL of donor solution was added to a UV compatible plate containing the corresponding standard curve. 150 μL of acceptor well solution was added adjacent to the corresponding standard curve and donor well samples for that compound. The plate was then read using a UV plate reader.
Permeability and membrane retention were then calculated based on the following formulas:
where: • A=filter area (0.3 cm^2); • VD=donor well volume (0.3 mL); • VA=acceptor well volume (0.2 mL); • t=incubation time (seconds); • CA(t)=compound concentration in acceptor well at time t; • CD(t)=compound concentration in donor well at time t; and
where: • CD(t), VD, CA(t), and VA are as defined for equation 1, and • C0=initial concentration in donor well (200 uM).

[4] = system: hepatocyte (HepG2) cell cultures; experiment: Cytotoxicity assay (LDH release); assay type: cell-based; settings: HepG2 cells, 48 hours, 0.1 to 100 μM
Protocol: This experiment was designed to obtain a preliminary assessment of cytotoxicity.
HepG2 cells were plated in 96-well cell culture plates and allowed to attach overnight at 37° C., 5% CO2 in EMEM+10% FBS. Treatments were made in complete media (EMEM+10% FBS) and included a dilution series of test compounds from 0.1 to 100 μM. Known cytotoxin cerivastatin was used as a positive assay control and prepared at a final concentration of 0.5 μM.
Growth media was replaced with treatment media (EMEM+10% FBS containing test compound dissolved in DMSO) and cells were incubated with test compounds for 48 hours. At the end of the incubation period, supernatant media from each well was transferred to a new plate and LDH assay working solution was added. LDH assay solution undergoes a colorimetric reaction in proportion to the amount of lactate dehydrogenase (an intracellular protein that was only found in the media in the presence of lysed cells) in the media. Color reaction was quantified by measurement of absorbance at a wavelength of 490 nm.
The signal range of the assay was determined by no manipulation in a negative control treatment and full lysis of all cells in a lysis control sample. Compounds that increase the level of cytotoxicity more than 20% above negative control samples were considered cytotoxic in this assay.

[5] = system: Rat primary cortical neuron cultures; experiment: Protection from neurotoxicity in vitro (Cell Titer-Glo viability); assay type: cell-based; settings: for Protection of cell viability, statistical significance vs. insult control: Positive Control (1 uM)
Protocol: HGF/MET signaling activation is expected to protect cells, including neurons, from cell death. […] Hydrogen peroxide (H2O2) treatment produces toxic oxidative stress. Bacteria-derived lipopolysaccharide (LPS) treatment induces inflammatory cell death. Treatment with excess glutamate (Glut) produces excitotoxicity in neuron cultures. Treatment with 1-methyl-4-phenylpyridinium (MPP^+) causes cell death by inhibition of mitochondrial function.
Rat primary cortical neuron cultures were grown at 37° C., 5% CO2 in Complete Neurobasal Medium supplemented with B27/GDNF/BDNF containing 10% FBS until maturity and were then seeded in 384-well plate at 5,000 cells/well. Cultures were then treated for 15 minutes with 1 uM, 100 nM, 10 nM, 1 nM, or 0.1 nM of compound 1a. Cells were then subjected to individual conditional insults for 24 hours at the following concentrations: H2O2 at 1 uM, LPS at 1 uM, glutamate at 25 uM, MPP+ at 500 uM. All treatments contained recombinant human HGF (R&D Systems) at a concentration of 5 ng/ml.
To quantify neuroprotection, cell viability was measured with the Cell Titer-Glo Luminescent Cell Viability Assay (Promega, Cat #G7571). Data was normalized to DMSO+HGF control set at 100% cell viability. Statistical analyses for each group (n=4) were performed using one-way ANOVA with Tukey's Multiple comparison test.
Data is reported as statistical significance vs. insult control, with NS=not significant, +=p<0.05, ++=p<0.01, and +++=p<0.001.

[6] = system: scopolamine-induced cognitive impairment; experiment: Scopolamine-induced cognitive impairment, T-maze spontaneous alternation task; assay type: in vivo, CD-1 mice; settings: mice; scopolamine only, 0.89 mg/kg
From the text: Mild cognitive impairment can be assessed in rodent models via delivery of various compounds that interfere with normal neurotransmitter signaling. Scopolamine is a compound that is well-known to antagonize muscarinic acetylcholine receptors, nicotinic receptors, as well as glutamatergic receptors such as NMDA receptors. Thus, delivery of scopolamine results in cognitive impairment, which can be assessed in a variety of cognitive tasks. Positive modulation of the HGF/MET system can promote NMDA receptor activation and results in pro-cognitive effects. Two test compounds, Compound 1a and Compound 5a, were evaluated for their ability to protect against scopolamine-induced cognitive impairment.
In this study, mild cognitive impairment was modeled in otherwise healthy male CD-1 mice (4-5 weeks old at study start) by acute delivery of 0.89 mg/kg scopolamine (dissolved in saline). Test compounds were administered via oral gavage 0.5 hours prior to scopolamine exposure, and cognitive performance was assessed in the T-maze spontaneous alternation task 0.5 hours after scopolamine exposure (1 hour following test compound exposure). The experimental protocol consisted of one single session, which started with 1 “forced-choice” trial, followed by 14 “free-choice” trials. In the first “forced-choice” trial, the animal was confined 5 seconds in the start arm and was then released while either the left or right goal arm was blocked by a horizontal door. After the mouse entered the open goal arm and returned to the start position, the left or right goal door was opened, and the animal was allowed to choose freely between the left and right goal arm (“free choice trials”). The animal was considered to have entered into an arm when it placed its four paws in the arm. Normal animals will choose to explore the previously-unexplored arm, which is recorded as a spontaneous alternation. […] The session was terminated, and the animal was removed from the maze as soon as 14 free-choice trials had been performed or 10 min had elapsed, whichever event occurred first.
This percentage was defined as entry into a different goal arm of the T maze over successive trials (e.g., left-right-left-right) and was calculated using the formula: (% alternations=Number of Alternations/14*100). Both compounds attenuated the degree of scopolamine-induced cognitive impairment, as indicated by increased percent of spontaneous alternations compared to scopolamine-only controls. Statistical analysis was accomplished via 1-way ANOVA with Dunnet's multiple comparisons post-test.

SMILES	Potency [1]	Potency [2]	Papp at 5 h, 200 uM [3] [×10⁻⁶ cm/s]	Cytotoxicity [4]	other results
CCC(C)CN1CC2N(C(=O)c3ccc(O)nc3)CCC(=O)N2[C@@H](C)C1=O (some centres unmarked) [Compound 4a]	+ (+ indicates maximum potency at or above 100 nM)	+ (+ indicates maximum potency at or above 100 nM)	> 10	++++ (++++ indicates non-toxic at 100 μM)	
CCC(C)N1CC2N(Cc3ccc(O)cc3)CCC(=O)N2CC1=O (centres unmarked) [Compound 9]	−	−	> 2	++++ (++++ indicates non-toxic at 100 μM)	
CCC(C)CN1CC2N(Cc3ccc(F)cc3)CCC(=O)N2C(C)C1=O (centres unmarked) [Compound 42]	++++ (++++ indicates maximum potency at or above 0.1 nM)	+++ (+++ indicates maximum potency at or above 1 nM)	> 2	++++ (++++ indicates non-toxic at 100 μM)	
CCC(C)CN1CC2N(Cc3ccc(OC(F)F)cc3)CCC(=O)N2C(CC(=O)O)C1=O (centres unmarked) [Compound 49, 2-(1-(4-(difluoromethoxy)benzyl)-8-(2-methylbutyl)-4,7-dioxooctahydro-2H-pyrazino[1,2-a]pyrimidin-6-yl)acetic acid]	++++ (++++ indicates maximum potency at or above 0.1 nM)	++++ (++++ indicates maximum potency at or above 0.1 nM)	> 2	++++ (++++ indicates non-toxic at 100 μM)	
CC1C(=O)N(CCC2CCC2)CC2N(Cc3ccc(C(F)(F)F)c(Cl)c3)CCC(=O)N12 (centres unmarked) [Compound 51]	+++ (+++ indicates maximum potency at or above 1 nM)	+++ (+++ indicates maximum potency at or above 1 nM)	< 2	+++ (+++ indicates non-toxic at 10 μM)	
C[C@]12N[C@H](Cc3ccccc31)c1ccccc12 [MK-801, reference compound]					Protection of cell viability, statistical significance vs. insult control ([5]; insult Glutamate (25 uM) 24 hours): +++ (+++=p<0.001); Protection of cell viability, statistical significance vs. insult control ([5]; insult H2O2 (1 uM) 24 hours): +++ (+++=p<0.001); Protection of cell viability, statistical significance vs. insult control ([5]; insult LPS (1 uM) 24 hours): +++ (+++=p<0.001); Protection of cell viability, statistical significance vs. insult control ([5]; insult MPP+ (500 uM) 24 hours): +++ (+++=p<0.001)
C[n+]1ccc(-c2ccccc2)cc1 [MPP+, 1-methyl-4-phenylpyridinium, reference compound]					Insult effect (% viability vs vehicle) ([5]; 500 uM, 24 hours, with HGF 5 ng/ml): 49.85%
CN1[C@@H]2C[C@@H](OC(=O)[C@H](CO)c3ccccc3)C[C@H]1[C@@H]1O[C@@H]12 [SCO, scopolamine, reference compound]					Spontaneous alternations % [6]: 37%
